Measured values: patent US9090565B2, “1-pyridazinyl-hydroxyimino-3-phenyl-propanes” (Hoffmann-La Roche Inc., priority 2011, dated 2015)

Target: T1, human GPBAR1 receptor (Homo sapiens, UniProt Q8TDU6)
T1 construct: expressed in transfected cells
T1 sequence (Q8TDU6 1-330): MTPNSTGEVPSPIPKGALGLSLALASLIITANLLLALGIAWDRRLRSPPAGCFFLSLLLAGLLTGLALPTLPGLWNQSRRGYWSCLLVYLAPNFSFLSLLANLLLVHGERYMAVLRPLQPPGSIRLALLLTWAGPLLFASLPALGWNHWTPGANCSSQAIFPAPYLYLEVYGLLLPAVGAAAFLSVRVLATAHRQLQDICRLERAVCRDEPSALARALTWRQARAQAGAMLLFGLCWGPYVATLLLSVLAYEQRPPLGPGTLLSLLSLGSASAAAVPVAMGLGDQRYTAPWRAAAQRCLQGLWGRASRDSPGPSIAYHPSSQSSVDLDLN
Experiment: functional cAMP assay in CHO-dhfr(minus) cells expressing human GPBAR1 receptors
Type: cell-based
Settings: TR-FRET, 30 min at 30° C.
Excerpt: The cDNA of the human GPBAR1 receptor (Genbank: NM_170699 with the exception of a silent C:G mutation at position 339 from the start codon) was amplified by polymerase chain reaction (PCR) from human cDNA and inserted into pCineo (Promega) by standard methods (Current Protocols in Molecular Biology, Wiley Press, ed. Ausubel et al.). The final clone was verified by DNA sequence analysis. The plasmid was transfected into CHO cells deficient in dihydrofolate reductase activity (CHO-dhfr-) using Lipofectamine plus (Invitrogen). Clones were isolated in limited dilution conditions and identified by activities in the cAMP assay using lithocholic acid as agonist. A clonal cell line displaying the greatest activity in cAMP increases was selected and identified as giving consistently good responses for up to at least 20 passages.
CHO-dhfr(minus) cells expressing human GPBAR1 receptors are seeded 17-24 hours prior to the experiment 50,000 cells per well in a black 96 well plate with flat clear bottom (Corning Costar #3904) in DMEM (Invitrogen No. 31331), 1×HT supplement, with 10% fetal calf serum and incubated at 5% CO2 and 37° C. in a humidified incubator. The growth medium was exchanged with Krebs Ringer Bicarbonate buffer with 1 mM IBMX and incubated at 30° C. for 30 min. Compounds were added to a final assay volume of 100 μl and incubated for 30 min at 30° C. The assay was stopped by the addition of 50 μl lysis reagent (Tris, NaCl, 1.5% Triton X100, 2.5% NP40, 10% NaN3) and 50 μl detection solutions (20 μM mAb Alexa700-cAMP 1:1, and 48 μM Ruthenium-2-AHA-cAMP) and shaked for 2 h at room temperature. The time-resolved energy transfer is measured by a TRF reader (Evotec Technologies GrmbH, Hamburg Germany), equipped with a ND:YAG laser as excitation source. The plate is measured twice with the excitation at 355 nm and at the emission with a delay of 100 ns and a gate of 100 ns, total exposure time 10 s at 730 (bandwidth 30 nm) or 645 nm (bandwidth 75 nm), respectively. The measured signal at 730 nm has to be corrected for the ruthenium background, the direct excitation of Alexa and the buffer control. The FRET signal is calculated as follows: FRET=T730−Alexa730-P(T645−B645) with P=Ru730−B730/Ru645−B645, where T730 is the test well measured at […], T645 is the test well measured at 645 nm, B730 and B645 are the buffer controls at 730 nm and 645 nm, respectively, cAMP content is determined from the function of a standard curve spanning from 10 μM to 0.13 nM cAMP.
EC50 values were determined using Activity Base analysis (ID Business Solution, Limited). The EC50 values for a wide range of bile acids generated from this assay were in agreement with the values published in the scientific literature. Specificity for GPBAR1 was tested in non-transfected CHO cells in the same assay as above.

Row | Structure (SMILES) | EC50 [nM]
1 | Cc1ccccc1C(C/C(=N\O)c1ccnnc1)c1ccc(C2CCN(S(C)(=O)=O)CC2)cc1 (centres unmarked) [Example 3, (E)-3-(4-(1-(methylsulfonyl)piperidin-4-yl)phenyl)-1-(pyridazin-4-yl)-3-o-tolylpropan-1-one oxime] | 956
2 | Cc1ccccc1[C@H](C/C(=N\O)c1ccnn(C)c1=O)c1ccc(C2CCN(S(C)(=O)=O)CC2)cc1 [Example 13, (R,E)-4-(1-(Hydroxyimino)-3-(4-(1-(methylsulfonyl)piperidin-4-yl)phenyl)-3-o-tolylpropyl)-2-methylpyridazin-3(2H)-one] | 179
3 | Cc1ccccc1[C@H](C/C(=N\O)c1ccn[nH]c1=O)c1ccc(C2CCN(S(C)(=O)=O)CC2)cc1 [Example 12, (R,E)-4-(1-(Hydroxyimino)-3-(4-(1-(methylsulfonyl)piperidin-4-yl)phenyl)-3-o-tolylpropyl)pyridazin-3(2H)-one] | 527
4 | Cc1ccccc1[C@H](C/C(=N\O)c1ccnnc1)c1ccc(Br)cc1 [Example 1, (R,E)-3-(4-Bromophenyl)-1-(pyridazin-4-yl)-3-o-tolylpropan-1-one oxime] | 80
5 | Cc1ccccc1[C@@H](C/C(=N\O)c1ccnn(C)c1=O)c1ccc(Br)cc1 [Example 6, (S,E)-4-(3-(4-Bromophenyl)-1-(hydroxyimino)-3-o-tolylpropyl)-2-methylpyridazin-3(2H)-one] | 90
6 | Cc1ccccc1[C@@H](C/C(=N\O)c1ccc(=O)[nH]n1)c1ccc(Br)cc1 [Example 14, (S,E)-6-(3-(4-Bromophenyl)-1-(hydroxyimino)-3-o-tolylpropyl)pyridazin-3(2H)-one] | 648
7 | Cc1ccccc1[C@H](C/C(=N\O)c1ccc(=O)n(C)n1)c1ccc(-c2ccc(C(=O)O)cc2)cc1 [Example 9, (R,E)-4′-(3-(Hydroxyimino)-3-(1-methyl-6-oxo-1,6-dihydropyridazin-3-yl)-1-o-tolylpropyl)biphenyl-4-carboxylic acid] | 61
8 | Cc1ccccc1C(C/C(=N\O)c1ccnnc1)c1ccc(-c2ccc(C(=O)O)cc2)cc1 (centres unmarked) [Example 2, (E)-4′-(3-(hydroxyimino)-3-(pyridazin-4-yl)-1-o-tolylpropyl)biphenyl-4-carboxylic acid] | 1560
9 | Cc1ccccc1[C@@H](C/C(=N\O)c1ccn[nH]c1=O)c1ccc(Br)cc1 [Example 5, (S,E)-4-(3-(4-Bromophenyl)-1-(hydroxyimino)-3-o-tolylpropyl)pyridazin-3(2H)-one] | 148

The next lines start with the values.

Row | EC50 [nM] | Structure (SMILES)
10 | 6 | Cc1ccccc1[C@H](C/C(=N\O)c1ccc(=O)n(C)n1)c1ccc(Br)cc1 [Example 7, (R,E)-6-(3-(4-Bromophenyl)-1-(hydroxyimino)-3-o-tolylpropyl)-2-methylpyridazin-3(2H)-one]
11 | 33 | Cc1ccccc1[C@H](C/C(=N\O)c1ccc(=O)n(C)n1)c1ccc(C2CCN(S(C)(=O)=O)CC2)cc1 [Example 8, (R,E)-6-(1-(Hydroxyimino)-3-(4-(1-(methylsulfonyl)piperidin-4-yl)phenyl)-3-o-tolylpropyl)-2-methylpyridazin-3(2H)-one]
12 | 60 | Cc1ccccc1[C@H](C/C(=N\O)c1ccc(=O)n(C)n1)c1ccc(S(C)(=O)=O)cc1 [Example 10, (R,E)-6-(1-(Hydroxyimino)-3-(4-(methylsulfonyl)phenyl)-3-o-tolylpropyl)-2-methylpyridazin-3(2H)-one]
13 | 52 | COc1nnccc1/C(C[C@H](c1ccc(C2CCN(S(C)(=O)=O)CC2)cc1)c1ccccc1C)=N/O [Example 11, (R,E)-1-(3-Methoxypyridazin-4-yl)-3-(4-(1-(methylsulfonyl)piperidin-4-yl)phenyl)-3-o-tolylpropan-1-one oxime]
14 | 31 | COc1nnccc1/C(C[C@@H](c1ccc(Br)cc1)c1ccccc1C)=N/O [Example 4, (S,E)-3-(4-bromophenyl)-1-(3-methoxypyridazin-4-yl)-3-o-tolylpropan-1-one oxime]
